We go through 16 compounds from patent US20240174690A1, “ANNULATED 2-AMINO-3-CYANO THIOPHENES AND DERIVATIVES FOR THE TREATMENT OF CANCER” (BOEHRINGER INGELHEIM INTERNATIONAL GMBH, priority 2021, published 2024).

The target of one test is KRAS (G13D)::SOS1 (Homo sapiens (Human), UniProt P01116, C118S/G13D). Kind of test: KRAS::SOS1 AlphaScreen binding assay, KRAS G13D. From the text:
(§1) This assay can be used to examine the potency with which compounds according to the invention binding to (mutated) KRAS inhibit the protein-protein interaction between SOS1 and (mutated) KRAS e.g., KRAS WT, KRAS G12C, KRAS G12D, KRAS G12V, KRAS G13D. […] Low IC50 values in this assay setting are indicative of strong inhibition of protein-protein interaction between SOS1 and KRAS:
(§2) These assays measure the inhibitory effect of compounds on KRAS mutant protein-protein interactions using the Alpha Screen technology by Perkin Elmer.
(§3) The following (mutant) enzyme forms of KRAS and interacting proteins are used in these assays at the given concentrations: • KRAS (G12D) 1-169, N-terminal 6His-tag, C-terminal avi-tag (Xtal BioStructures, Inc.); final assay concentration 10 nM and SOS1 564-1049, N-terminal 229 GST-tag, TEV cleavage site (Viva Biotech Ltd); final assay concentration 5 nM; • KRAS (G12C) 1-169, N-terminal 6His-tag for purification, cleaved off, C-terminal avi-tag, biotinylated, mutations: C51S, C80L, C118S (in house); final assay concentration 7.5 nM and SOS1 564-1049, N-terminal 229 GST-tag, TEV cleavage site (Viva Biotech Ltd); final assay concentration 5 nM; • KRAS (G12V) 1-169, N-terminal 6His-tag for purification, cleaved off, C-terminal avi-tag, biotinylated, TEV cleavage site, mutation: C118S, GDP loaded (in house); final assay concentration 10 nM and SOS1 564-1049, N-terminal 229 GST-tag, TEV cleavage site (Viva Biotech Ltd); final assay concentration 10 nM; • KRAS (G13D) 1-169, N-terminal 6His-tag for purification, cleaved off, C-terminal avi-tag, biotinylated, TEV cleavage site, mutation: C118S, GDP loaded (in house); final assay concentration 10 nM and SOS1 564-1049, N-terminal 229 GST-tag, TEV cleavage site (Viva Biotech Ltd); final assay concentration 10 nM; • KRAS (WT) 1-169, N-terminal 6His-tag for purification, cleaved off, C-terminal avi-tag, biotinylated, TEV cleavage site, mutation: C118S, GDP loaded (in house); final assay concentration 10 nM and SOS1 564-1049, N-terminal 229 GST-tag, TEV cleavage site (Viva Biotech Ltd); final assay concentration 10 nM.
(§4) Test compounds dissolved in DMSO are dispensed onto assay plates (Proxiplate 384 PLUS, white, PerkinElmer; 6008289) using an Access Labcyte Workstation with the Labcyte Echo 55×. For the chosen highest assay concentration of 100 μM, 150 nL of compound solution are transferred from a 10 mM DMSO compound stock solution. A series of eleven fivefold dilutions per compound are transferred to the assay plate, compound dilutions are tested in duplicates. DMSO are added as backfill to a total volume of 150 nL.
(§5) The assays run on a fully automated robotic system in a darkened room below 100 Lux. To 150 nl of compound dilution 10 μl of a mix including KRAS mutant protein, SOS1 (final assay concentrations see above) and GDP nucleotide (Sigma G7127; final assay concentration 10 μM) in assay buffer (1×PBS, 0.1% BSA, 0.05% Tween 20) are added into columns 1-24.
(§6) After 30 minutes incubation time 5 μl of Alpha Screen bead mix in assay buffer are added into columns 1-23. Bead mix consists of AlphaLISA Glutathione Acceptor Beads (PerkinElmer, Cat No AL109) and AlphaScreen Streptavidin Donor Beads (PerkinElmer Cat No 6760002) in assay buffer at a final assay concentration of 10 μg/ml each.
(§7) Plates are kept at room temperature in a darkened incubator. After an additional 60 minutes incubation time the signal is measured in a PerkinElmer Envision HTS Multilabel Reader using the AlphaScreen specs from PerkinElmer.
(§8) Each plate contains up to 16 wells of a negative control depending on the dilution procedure (platewise or serial) (DMSO instead of test compound; with KRAS mutant::SOS1 GDP mix and bead mix; column 23) and 16 wells of a positive control (DMSO instead of test compound; with KRAS mutant::SOS1 GDP mix w/o bead mix; column 24).
(§9) As internal control known inhibitors of KRAS mutant::SOS1 interaction can be measured on each compound plate. […]
For orientation: Bead proximity is the source of the signal in Alpha formats.

The target of another test is KRAS (G12V)::SOS1 (Homo sapiens (Human), UniProt P01116, C118S/G12V). Kind of test: KRAS::SOS1 AlphaScreen binding assay, KRAS G12V.
Chain of KRAS (G12V)::SOS1 (P01116 other isoform, or with tags, fused parts or gaps G12V/C118S): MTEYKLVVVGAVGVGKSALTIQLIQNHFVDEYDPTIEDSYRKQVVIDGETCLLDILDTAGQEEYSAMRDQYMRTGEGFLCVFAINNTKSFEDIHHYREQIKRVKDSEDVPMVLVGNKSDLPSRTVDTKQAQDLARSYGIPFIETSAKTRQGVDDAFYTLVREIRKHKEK
Text: as §1, §2, §3, §4, §5, §6, §7, §8, §9

For the next test, the system named is A375 cells. Briefly: A375 CTG proliferation assay (120 h) (melanoma, wt, B-Raf mutant, negative control). It is filed as cell-based. Conditions: Homo sapiens, A-375, CTG 120 h. The procedure: A375 CTG Proliferation Assay (120 h) (Melanoma, Wt, B-Raf Mutant, Negative Control)
A375 cells (ATCC CRL-1619) are dispensed into 384-well plates, flat and clear bottom (Greiner, PNr. 781091) at a density of 300 cells per well in 60 μL DMEM (Sigma 06429)+10% Fetal Calf Serum (HyClone, PNr.: SH30084.03) and incubated at 37° C. in a CO2 incubator overnight. The next day, compounds (10 mM stock in DMSO) are added at logarithmic dose series using the HP Digital Dispenser D300 (Tecan), including DMSO controls. Plates are incubated for 120 h, and cell viability is measured using CellTiter-Glo luminescent cell viability reagent (Promega product code G7570). Viability (stated as percent of control) is defined as relative luminescence units RLU of each well divided by the RLU of cells in DMSO controls. IC50 values are determined from viability measurements by non-linear regression using a four-parameter model.

Chain of KRAS (G13D)::SOS1 (P01116 other isoform, or with tags, fused parts or gaps G13D/C118S): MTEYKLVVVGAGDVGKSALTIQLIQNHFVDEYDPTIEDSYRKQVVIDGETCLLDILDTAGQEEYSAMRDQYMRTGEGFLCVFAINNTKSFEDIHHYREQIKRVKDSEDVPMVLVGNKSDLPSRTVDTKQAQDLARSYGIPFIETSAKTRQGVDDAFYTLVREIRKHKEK

Take `C[C@H](Oc1cc(-n2ccc(C(=O)N[C@H]3CCOC3)n2)nc(-c2noc3c2CCC[C@@]32CCCc3sc(N)c(C#N)c32)n1)[C@@H]1CCCN1C` [II-193]: the half-maximal inhibitory concentration (IC50) amounted to 9 nM on KRAS (G13D)::SOS1 and 2 nM at KRAS (G12V)::SOS1.

As for `C[C@H](Oc1cc(-n2ccc(C3(O)COC3)n2)nc(-c2noc3c2CCC[C@@]32CCCc3sc(N)c(C#N)c32)n1)[C@@H]1CCCN1C` [II-189], the IC50 at KRAS (G12V)::SOS1 came out at 3 nM.

As to `C[C@H](Oc1cc(-n2ccc(C(=O)N[C@@H]3CCOC3)n2)nc(-c2noc3c2CCC[C@@]32CCCc3sc(N)c(C#N)c32)n1)[C@@H]1CCCN1C` [II-192], the 50% inhibitory concentration (IC50) at KRAS (G13D)::SOS1 was determined as 7 nM; on KRAS (G12V)::SOS1, 1 nM.

For the compound `C[C@H](Oc1cc(-n2ccc(-c3cn(C4CCOCC4)nn3)n2)nc(-c2noc3c2CCC[C@@]32CCCc3sc(N)c(C#N)c32)n1)[C@@H]1CCCN1C` [II-210], the IC50 at KRAS (G12V)::SOS1 was 2 nM.

With `C[C@H](Oc1cc(N2CCNC3(CC3)C2)nc(-c2noc3c2CCC[C@@]32CCCc3sc(N)c(C#N)c32)n1)[C@@H]1C[C@@H](F)CN1C` [II-165], the IC50 came out at 48 nM at KRAS (G13D)::SOS1 and 15 nM on KRAS (G12V)::SOS1.

As to `COCCNC(=O)c1ccn(-c2cc(O[C@@H](C)[C@@H]3CCCN3C)nc(-c3noc4c3CCC[C@@]43CCCc4sc(N)c(C#N)c43)n2)n1` [II-195], the IC50 came to 7 nM on KRAS (G13D)::SOS1 and 1 nM at KRAS (G12V)::SOS1.

Regarding `C[C@H](Oc1cc(-n2ccc(-c3cnccn3)n2)nc(-c2noc3c2CCC[C@@]32CCCc3sc(N)c(C#N)c32)n1)[C@@H]1CCCN1C` [II-130], the results for the half-maximal inhibitory concentration (IC50) on KRAS (G12V)::SOS1 and with A375 cells were 2 nM and 1310 nM, respectively.

In the case of `C[C@H](Oc1cc(N2CCN(C)C3(COC3)C2)nc(-c2noc3c2CCC[C@@]32CCCc3sc(N)c(C#N)c32)n1)[C@@H]1C[C@@H](F)CN1C` [II-148], the IC50 at KRAS (G12V)::SOS1 turned out to be 3 nM.

For the compound `CO[C@H]1CCN(C)[C@@H]1[C@H](C)Oc1cc(-n2ccc(C(N)=O)n2)nc(-c2noc3c2CCC[C@@]32CCCc3sc(N)c(C#N)c32)n1` [II-201], the concentration for half-maximal inhibition (IC50) on KRAS (G13D)::SOS1 amounted to 27 nM.

Take `C[C@H](Oc1cc(N2CCOC2=O)nc(-c2noc3c2CCC[C@@]32CCCc3sc(N)c(C#N)c32)n1)[C@@H]1CCCN1C` [II-143]: in the test with A375 cells, the IC50 is > 3000 nM.

Regarding `C[C@H](Oc1cc(-c2cccc(C(N)=O)c2)nc(-c2noc3c2CCC[C@@]32CCCc3sc(N)c(C#N)c32)n1)[C@@H]1CCCN1C` [II-133], the values for the IC50 on KRAS (G12V)::SOS1 and with A375 cells were 2 nM and 1380 nM, respectively.

On KRAS (G12V)::SOS1, `CO[C@H]1CCN(C)[C@@H]1[C@H](C)Oc1cc(-n2ccc(C(=O)N[C@@H](C)c3ccccn3)n2)nc(-c2noc3c2CCC[C@@]32CCCc3sc(N)c(C#N)c32)n1` [II-196] gave a half-maximal inhibitory concentration (IC50) of 2 nM.

`CO[C@H]1CCN(C)[C@@H]1[C@H](C)Oc1cc(N2CCNC3(CC3)C2)nc(-c2noc3c2CCC[C@@]32CCCc3sc(N)c(C#N)c32)n1` [II-184]: the IC50 on KRAS (G12V)::SOS1 is 2 nM.

In turn, `C[C@H](Oc1cc(-n2cc(-c3cncs3)nn2)nc(-c2noc3c2CCC[C@@]32CCCc3sc(N)c(C#N)c32)n1)[C@@H]1CCCN1C` [II-125] returned an IC50 in the test on A375 cells of 324 nM.

`CC(C)NC(=O)Cc1ccn(-c2cc(O[C@@H](C)[C@@H]3CCCN3C)nc(-c3noc4c3CCC[C@@]43CCCc4sc(N)c(C#N)c43)n2)n1` [II-182] gave a half-maximal inhibitory concentration (IC50) at KRAS (G13D)::SOS1 of 8 nM.

For `C[C@H](Oc1cc(N2CCN(C)C3(CC3)C2)nc(-c2noc3c2CCC[C@@]32CCCc3sc(N)c(C#N)c32)n1)[C@@H]1CCCN1C` [II-171], the IC50 at KRAS (G13D)::SOS1 was determined as 64 nM; at KRAS (G12V)::SOS1 it was 50 nM.

A word on the IC50: it is the midpoint of a concentration-inhibition curve. Read a low IC50 as higher potency.
